# Assay results: patent US20040247577A1, “Method and composition for inhibiting heparanase activity” (priority 2001, published 2004)
# T1: mouse heparanase (Mus musculus, UniProt Q6YGZ1)
# T1 construct: heterodimer of the 50 kDa polypeptide (Lys^150-Ile^535) and the 8 kDa peptide (Asp^28-Lys^100); made in house
# T1 sequence (Q6YGZ1 150-535): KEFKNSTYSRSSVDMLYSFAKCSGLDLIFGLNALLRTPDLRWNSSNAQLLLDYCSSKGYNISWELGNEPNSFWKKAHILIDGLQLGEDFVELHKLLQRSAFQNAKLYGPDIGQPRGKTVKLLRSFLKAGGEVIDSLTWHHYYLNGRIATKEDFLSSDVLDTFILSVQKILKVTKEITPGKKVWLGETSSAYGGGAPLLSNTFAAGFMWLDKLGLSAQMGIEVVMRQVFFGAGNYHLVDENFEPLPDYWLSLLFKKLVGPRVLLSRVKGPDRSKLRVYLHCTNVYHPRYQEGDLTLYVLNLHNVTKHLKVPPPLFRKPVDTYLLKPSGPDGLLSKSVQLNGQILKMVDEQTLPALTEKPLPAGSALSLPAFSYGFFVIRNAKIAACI
# T1 sequence (Q6YGZ1 28-100): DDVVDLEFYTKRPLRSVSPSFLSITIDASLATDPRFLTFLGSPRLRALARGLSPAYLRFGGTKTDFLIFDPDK
# T2: human heparanase (Homo sapiens, UniProt Q9Y251)
# T2 sequence (Q9Y251 158-543): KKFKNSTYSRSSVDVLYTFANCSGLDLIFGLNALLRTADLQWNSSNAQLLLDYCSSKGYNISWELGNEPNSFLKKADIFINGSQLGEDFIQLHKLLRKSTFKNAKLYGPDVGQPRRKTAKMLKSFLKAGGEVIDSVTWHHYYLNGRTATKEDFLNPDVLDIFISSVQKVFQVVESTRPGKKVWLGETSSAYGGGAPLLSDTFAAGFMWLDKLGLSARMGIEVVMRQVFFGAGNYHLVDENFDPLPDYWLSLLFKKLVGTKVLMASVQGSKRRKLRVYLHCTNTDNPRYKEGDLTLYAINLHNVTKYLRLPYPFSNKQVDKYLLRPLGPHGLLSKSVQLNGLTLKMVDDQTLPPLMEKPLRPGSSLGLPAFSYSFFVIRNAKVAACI
# T2 sequence (Q9Y251 36-109): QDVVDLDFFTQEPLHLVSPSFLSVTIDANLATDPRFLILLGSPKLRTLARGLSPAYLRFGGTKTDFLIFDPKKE
# Key:
# mouse heparanase = target: T1, mouse heparanase; experiment: Inhibition of recombinant mouse heparanase activity; assay type: biochemical
# Description: (§1) Polypeptide samples were mixed with 25 μl of ^35S-ECM-HSPG (a generous gift from Dr. Israel Vlodavsky, The Hadassah-Hebrew University Hospital, Jerusalem, Israel) in a buffer containing 0.1 M sodium acetate, pH 5.0, 0.01% Triton X-100. After overnight incubation at 37° C., the samples were loaded onto a Superose 12 column (0.7×25 cm, 0.5 ml/min) and the radioactivity of the fractions (0.25 ml/fraction) were measured in a β-scintillation counter. The enzymatic activity was also studied for the ability to degrade HS. For this purpose, ^3H-HS-Sepharose (6.25 nM) was substituted as the substrate in the heparanase reaction, and the radioactivity released into the reaction buffer after overnight incubation was determined.
# lung metastasis = conditions: cited from earlier work; for tumor growth and angiogenesis: Parish et al. 1999; for incidence of lung metastasis: experimental animals
# human heparanase = target: T2, human heparanase; conditions: cited from earlier work
# [1] = Enzymatic activity of heparanase on radiolabeled HSPG / HS substrates; assay type: biochemical
# Description: as §1, with “Israel Vlodavsky, The Hadassah-Hebrew University Hospital, Jerusalem, Israel) in a buffer containing 0.1 M sodium acetate, pH 5.0, 0.01% Triton X-100.” left out
# To test whether the recombinant mouse heparanase is enzymatically active, purified polypeptide was incubated with metabolically radiolabeled HSPG. The reaction products were analyzed by gel filtration on a Superose 12 column.
molecule,measurement,setting,value
heparin,inhibition of mouse heparanase enzyme activity (in words),mouse heparanase,inhibited
mannopentaose phosphate sulfate [PI-88],tumor growth and angiogenesis,lung metastasis,markedly reduced
same,incidence of lung metastasis,lung metastasis,markedly reduced
Laminarin sulfate,IC50,mouse heparanase,50 nM
same,inhibition of mouse heparanase activity at 1 μM,mouse heparanase; 1 μM,completely inhibited
same,tumor growth and angiogenesis,lung metastasis,markedly reduced
same,incidence of lung metastasis,lung metastasis,markedly reduced
same,tumor metastasis in vivo,lung metastasis; in vivo,inhibit
same,human heparanase activity in vitro,human heparanase,inhibit
"mouse heparanase: Recombinant full-length mouse heparanase polypeptide of 535 amino acids, mature form a heterodimer of 50 kDa and 8 kDa (protein, UniProt Q6YGZ1 1-535, looked up, full-length, Recombinant full-length mouse heparanase polypeptide of 535 amino acids, mature form a heterodimer of 50 kDa and 8 kDa) MLRLLLLWLWGPLGALAQGAPAGTAPTDDVVDLEFYTKRPLRSVSPSFLSITIDASLATDPRFLTFLGSPRLRALARGLSPAYLRFGGTKTDFLIFDPDKEPTSEERSYWKSQVNHDICRSEPVSAAVLRKLQVEWPFQELLLLREQYQKEFKNSTYSRSSVDMLYSFAKCSGLDLIFGLNALLRTPDLRWNSSNAQLLLDYCSSKGYNISWELGNEPNSFWKKAHILIDGLQLGEDFVELHKLLQRSAFQNAKLYGPDIGQPRGKTVKLLRSFLKAGGEVIDSLTWHHYYLNGRIATKEDFLSSDVLDTFILSVQKILKVTKEITPGKKVWLGETSSAYGGGAPLLSNTFAAGFMWLDKLGLSAQMGIEVVMRQVFFGAGNYHLVDENFEPLPDYWLSLLFKKLVGPRVLLSRVKGPDRSKLRVYLHCTNVYHPRYQEGDLTLYVLNLHNVTKHLKVPPPLFRKPVDTYLLKPSGPDGLLSKSVQLNGQILKMVDEQTLPALTEKPLPAGSALSLPAFSYGFFVIRNAKIAACI",pH at which the enzyme was most active,[1]; ^3H-HS at various pH conditions,5.0
same,enzymatic activity at pH 4.0 or 8.0,[1]; pH 4.0 or 8.0,Little or no enzymatic activity was detected
same,amount of heparanase giving maximal degradation of 6.25 nmole ^3H-HS,[1]; pH 5.0,50 ng
same,additional enzyme necessary for comparable activity,[1]; pH 7.5 compared with pH 5.0,~10 fold
same,"degradation of ^35S-HSPG, elution profile on Superose 12 column",[1]; undigested substrate eluted in fractions 5-15,eluted as low-MW fragments in later fractions (16-35)
